These results are taken from US20100099719A1, “COMPOSITION AND METHOD FOR TREATING PROTEINURIA” (DIEREPHARMA, INC., priority 2008, published 2010).

The subject of one assay is rat renal fibroblasts. Particulars: in vitro; cited from earlier work.
In another assay the test system is TNF-α mRNA. The experiment in a line: LPS-stimulated TNF-α mRNA synthesis in RAW264.7 macrophages (real time PCR). In kind it is cell-based, mouse. Particulars: LPS 10 ng/ml 20 h; for inhibition of LPS-stimulated TNF-α mRNA synthesis: dose of 500 μg/ml; for inhibition on LPS-stimulated TNF-α mRNA synthesis: pre-treated 4 h at 10, 100, 500 μg/ml. As for the experimental part:
Mouse macrophage RAW264.7 cells were pre-treated with AKF-PD or PFD for 4 hours at the following doses: 0, 10 μg/ml, 100 μg/ml, and 500 μg/ml. Cells are then stimulated by treatment with LPS at 10 ng/ml for 20 hours. Expression of TNF-α mRNA is assayed by a quantitative real time PCR analysis using the TaqMan PCR core reagent kit (Applied Biosystems). TNF-α gene expression in the control non-treated cells was taken as 1 and regarded as control. All the other values were expressed as fold increase of the control. The mouse beta actin gene was used as endogenous control. Each column with error bar represents the mean mRNA level±SD of duplicate samples. Statistical comparisons for all three AKF-PD doses relative to control indicate p<0.01; PFD at the doses of 100 and 500 μg/ml relative to control indicate P<0.01.
We next investigated the effect of AKF-PD on TNF-α transcription.

The test system of the next assay is rat UUO model. The assay can be described thus: Unilateral ureteral obstruction (UUO) model, tubulointerstitial injury score. In kind it is in vivo, SD rats. Particulars: UUO rats; for Tubulointerstitial injury score (TIS): 500 mg/kg/d by gavage. The protocol: Kidney damage and fibrosis were induced by Unilateral Ureteral Obstruction in rat. The reno-protective effect of AKF-PD was evaluated in the rat UUO model.
Fixed tissues were dehydrated in graded alcohol and embedded in paraffin. Sections were stained with hematoxylin & eosin (HE) for general histology. Injury score was evaluated. On Day 7, the kidneys of rats subjected to ureteral obstruction developed a conspicuous tubulointerstitial injury characterized by tubular dilatation and atrophy, interstitial inflammation, and a marked interstitial fibrosis. The damage was more prominent on Day 15. Renal injury was ameliorated after treatments with AKF-PD as indicated by the lower tubulointerstitial injury scores and interstitial fibrosis expansion of these groups, with P<0.05 for all comparisons (Table 2).
Table 2. Comparison of histological scores for interstitial compartment. Eight weeks old male SD rats (180 g ˜220 g) were randomly divided into sham surgical group, disease model UUO group, and AKF-PD (500 mg/kg/d) group. […] The animals of the sham surgical group experienced the same surgical procedure except the ligation step. AKF-PD was administrated by gavage from one day prior to the procedure to 15 days post surgical procedure. Normal saline was administrated in a similar fashion to the rats in the groups of disease model and sham surgical. The animals were sacrificed 15 days after surgical procedure and their left kidney were removed for pathological (HE staining) examination. Histological scoring for interstitial compartment was done according to Radford's method (Predicting renal outcome in IgA nephropathy. J. Am. Soc. Nephrology, 1997; 8:199-207).

Another assay deals with TGF-β. The experiment in a line: TGF-β protein expression in kidney of rat UUO model (Western blot, densitometry). Format: in vivo. Particulars: obstructed kidney. From the text: A. Western analysis of TGF-β protein expression. Two rats were sacrificed from groups of control sham operated, UUO, and UUO+AKF-PD at day 7 and day 15. Total protein was extracted from the kidney samples and subjected to Western analysis of TGF-β. The protein loading was normalized with actin. Lane 1, control sham at day 7; lane 2, control sham at day 15; lane 3, UUO at day 7; lane 4, UUO+AKF-PD at day 7; lane 5, UUO at day 15; lane 6, UUO+AKF-PD at day 15. B. Comparison of the intensity of bands on a Western blot by densitometry. The bands were scanned by densitometer and expressed as a fold increase over control sham operated rat at day 7, which was taken as 1.
TGF-β is a pro inflammatory cytokine and its overproduction plays critical role in tissue fibrosis. Using UUO model, we analyzed the effect of AKF-PD on TGF-β protein expression by Western blot. […] Densitometry analyses of the intensity of the bands indicate that TGF-β protein expression in obstructed kidneys was increased by 4.9- and 6.5-fold than those in the Sham group on Days 7 and 15, respectively.
(In general: In western blotting, separated proteins are transferred to a membrane and probed.)

The next assay concerns TNF-α. The experiment in a line: LPS-stimulated TNF-α protein synthesis and secretion in RAW264.7 cells (ELISA). Format: cell-based, mouse. Particulars: LPS 100 ng/ml 8 h; for inhibition at 300 µg/mL: dose of 300 μg/ml. As for the experimental part:
RAW264.7 cells were pre-treated with AKF-PD for 4 hours at the following doses: 0, 30 μg/ml, 100 μg/ml, and 300 μg/ml. Cells were then stimulated by the treatment with LPS at 100 ng/ml for 8 hours. Cell lysate was prepared from the harvested cells. Media from the cell culture were collected, concentrated 10-fold. Both cell lysate (B) and media (A) were subjected to ELISA assay (OptEIA™) specific for mouse TNF-α according to the manufacturer's instructions (BD Biosciences). Each column with error bar represents the average of triplicate TNF-α assay results and the standard deviation (SD). Statistical comparisons for AKF-PD treated cells relative to the controls indicate P<0.001 for secreted levels (A) at all three doses; and P<0.01 for cellular levels (B) at doses of 100 and 300 μg/ml, respectively.
The effect of AKF-PD on TNF-α protein synthesis and secretion was analyzed in LPS-stimulated RAW264.7 cells. Cells were pretreated with AKF-PD and then stimulated by LPS. Both secreted and cellular levels of TNF-α protein were determined. […] Therefore, the exposure of RAW264.7 cells to AKF-PD exerted a significant and dose-dependent suppression of levels of both cell-associated and secreted TNF-α protein.
On the technique in general: An ELISA detects its analyte on a solid surface through an enzyme-linked reagent.

Assay [1] has as its system streptozotocin-induced diabetic rats. The assay can be described thus: Streptozotocin-induced diabetic nephropathy in rats. Format: in vivo, Sprague-Dawley rats. The protocol: Diabetic kidney disease in the rat was induced by streptozotocin (STZ) to test the effectiveness of 5-methyl-2(1H)-pyridone (AKF-PD) in preserving kidney function by reducing the level of proteinuria.
Diabetic nephropathy was induced in Sprague-Dawley rats with a single intravenous injection of STZ (45 mg/kg). Streptozotocin was injected in a single dose of 45 mg/kg, i.v., to rats (Male Sprague-Dawley rats (200-250 g). Age-matched control rats received citrate buffer and were used in parallel with diabetic animals. Two days after STZ injection, plasma glucose levels were measured. Rats having plasma glucose levels>250 mg/dL after 4 weeks were selected for the study. Control and diabetic rats were divided into two groups, consisting of 6 animals each. AKF-PD was suspended in 0.5% sodium carboxy methylcellulose (CMC). From 4 to 8 weeks after the initial STZ injection, the first group of control animals received vehicle, and the second group received a suspension of AKF-PD (500 mg/kg per day) orally. Similarly, one group of diabetic rats received vehicle and the second group received AKF-PD (500 mg/kg per day). At the end of 8th week, rats were kept individually in metabolic cages for 24 h to collect urine for the measurements. Renal function was assessed by measuring plasma and urine levels of creatinine and urea and urine albumin excretion. Plasma glucose levels were also measured at 4 weeks and at the end of the experiment to investigate the effect of AKF-PD on glucose levels. Urinary proteins were measured by Bio-Rad protein assay (Bio-Rad, Hercules, Calif.). Blood urea nitrogen and creatinine levels were measured using Beckman analyzers (BUN Analyzer II, and Creatinine Analyzer II Beckman Instruments Inc., Brea, Calif.).

For a further assay, the system named is p38. The experiment in a line: LPS-induced p38 activation in RAW264.7 macrophages (Western blot, phospho-p38). Format: cell-based, mouse. Particulars: RAW264.7 cells pretreated 100 and 500 μg/ml, 4 h; LPS 10 ng/ml, 30 min. The protocol:
Mouse macrophage RAW264.7 cells were pretreated with AKF-PD (100 and 500 μg/ml, 4 h) or PFD (100 and 500 μg/ml, 4 h) and then exposed to LPS (10 ng/ml, 30 min). Total cell lysates were processed by SDS-PAGE and membranes blotted with a phosphospecific p38 and normalized with p38.
The MAPK family of proteins comprises of three-tiered cascades of Erk1/2, p38, and JNK. The p38 kinase is activated by phosphorylation of a conserved Thr-Gly-Tyr motif in the activation loop. The activated p38 is then able to phosphorylate a wide variety of targets in the cytoplasm and nucleus, resulting in cellular responses such as apoptosis, inflammation, and fibrosis. We first analyzed the anti-inflammatory properties of AKF-PD in p38 signaling in lipopolysaccharide (LPS)-stimulated mouse macrophages RAW264.7 cells. Cells are pre-treated with AKF-PD or pirfenidone (PFD) for 4 hours and then stimulated by treatment with LPS. […] No effects on total p38 protein levels were observed showing that AKF-PD and PFD have no effect on protein stability. […] The potential upstream targets for AKF-PD include upstream kinases MAPKK3 (MKK3) and MAPKK6 (MKK6).

The test system of assay [2] is mild chronic anti-GBM nephritis in rats. Particulars: rat model of nephritis; cited from earlier work.
In assay [3] the test system is patients with focal segmental glomerulosclerosis. Particulars: cited from earlier work.
Setting [4] is: DN (diabetic) rats + AKF-PD 500 mg/kg per day p.o., 4 weeks, mean ± SEM (n = 6).

Where two headings read alike, the source gives them in different places.

A word on the inhibition: it is the relative decrease from the control value, in per cent. On to `Cc1ccc(=O)n(-c2cccc(F)c2)c1` [AKF-PD, 1-(3′-Fluorophenyl)-5-Methyl-2(1H)-Pyridone], for which, in the assay on rat renal fibroblasts, the “proliferation of rat renal fibroblasts” value is reported as “inhibit the proliferation”. Moreover, in the assay with TNF-α mRNA, the “inhibition of LPS-stimulated TNF-α mRNA synthesis” value is reported as “Approximately 50%” and the “inhibition on LPS-stimulated TNF-α mRNA synthesis” value is listed as “dose-dependent inhibition”. The “Tubulointerstitial injury score (TIS)” value with rat UUO model (Day 7) is given as 2.64 ± 0.79 #. Besides, in the assay on rat UUO model (Day 15), the “Tubulointerstitial injury score (TIS)” value is recorded as 3.82 ± 0.43 #. Besides, the “renal injury (tubulointerstitial injury scores and interstitial fibrosis expansion)” value with rat UUO model (P<0.05) is given as “ameliorated”. The “reduction of TGF-β protein expression” value with TGF-β (Day 7, UUO rats) stood at 55%. Moreover, the “reduction of TGF-β protein expression” value in the assay with TGF-β (Day 15, UUO rats) amounted to 71%. The “inhibition on TNF-α protein levels” value in the assay with TNF-α (30, 100, 300 μg/ml pre-treatment 4 h) is “dose-dependent inhibition”. In addition, the inhibition at 100 µg/mL with TNF-α (Mus musculus, dose of 100 μg/ml, read-out: inhibition of secreted levels of TNF-α) was determined as 64%. The inhibition at 300 µg/mL in the assay on TNF-α (Mus musculus, read-out: inhibition of cellular levels of TNF-α) is approximately 50%. For the same molecule, the inhibition at 300 µg/mL in the assay with TNF-α (Mus musculus, read-out: inhibition of secreted levels of TNF-α) worked out at 89%. Further, the Urine output in [1] (DN (diabetic) rats + AKF-PD 500 mg/kg per day p.o., 4 weeks, 24 h urine, mean ± SEM (n = 6)) was found to be 15.25 ± 1.75 mL. Moreover, in [1] (setting [4]), the Blood urea nitrogen was 18.88 ± 1.50 mg/dL, the Serum creatinine is 0.75 ± 0.13 mg/dL and the Urinary albumin excretion came to 6.10 ± 0.23 mg/dL. For the same molecule, the “renal dysfunction in diabetic rats” value in assay [1] (diabetic rats, 500 mg/kg per day from 4 to 8 weeks) was “significantly attenuated”. In addition, in the assay on p38, the “LPS-induced p38 activation (phosphorylation)” value is “significantly blocked” and the “total p38 protein levels” value is on record as “No effects”.
Consider `Cc1ccc(=O)n(-c2ccccc2)c1` [PFD, pirfenidone, reference compound], for which, in the assay with TNF-α mRNA, the “inhibition of LPS-stimulated TNF-α mRNA synthesis” value was “Approximately 50%” and the “inhibition on LPS-stimulated TNF-α mRNA synthesis” value is “dose-dependent inhibition”. For the same molecule, the urinary protein excretion entry in assay [2] was “caused a decline”. Also, the effect on proteinuria result in [3] (clinical data, open-label trial) was “does not have any effect”. Besides, the “monthly deterioration in GFR (median)” value in assay [3] (with pirfenidone therapy, 18 patients, median of 13-month treatment, baseline period −0.61) was −0.45 ml/min per 1.73 m^2. For the same molecule, in the assay on p38, the “LPS-induced p38 activation (phosphorylation)” value is “significantly blocked” and the “total p38 protein levels” value is on record as “No effects”.
